Source: patent US7482342B2, “Indazolecarboxamide derivatives, preparation and use thereof as CDK1, CDK2 and CDK4 inhibitors” (sanofi-aventis, priority 2002, dated 2009)

Details: not given
Molecule `O=C(NCCCn1ccnc1)c1n[nH]c2ccccc12` has a melting point of 154 to 155 °C.
Molecule `CCOC(=O)c1cccc(NC(=O)c2n[nH]c3ccccc23)c1` has a melting point of 187 to 188 °C.
In the case of `O=C(O)c1cccc(NC(=O)c2n[nH]c3ccccc23)c1`, the melting point is reported as greater than 250 °C.
For `O=C(Nc1ccncc1)c1n[nH]c2ccc([N+](=O)[O-])cc12`, the melting point was greater than 260 °C.
With `O=C(Nc1ccncc1)c1n[nH]c2ccc(I)cc12` the melting point was greater than 260 °C.
`O=C(Nc1ccc(Nc2ccccc2)cc1)c1n[nH]c2ccccc12` [Compound No. 4, N-(4-Phenylaminophenyl)-1H-indazole-3-carboxamide] gave a melting point of 218 °C.

Details: prior art; cited from earlier work
For `Cc1ccc(CNC(=O)c2n[nH]c3ccccc23)cc1` [N-(4-Methylbenzyl)-1H-indazole-3-carboxamide], the pharmacological activity is given as “no pharmacological activity”.
